Measured values reported in patent publication US11911396B2, “Use of compound in preparation of drug for treating cerebral small vessel disease” (GUANGZHOU CELLPROTEK PHARMACEUTICAL CO., LTD, priority 2017, dated 2024).

Columns and labels:
CD11b in microglia BV2 = assay: Western blot of CD11b in BV2 cells stimulated with hemoglobin and hypoxia, with or without CD163 RNA interference; type: cell-based; settings: 10 μM Triol, 20 μM hemoglobin and 1% hypoxia for 6 hours
Description: FIG. 7. […] According to the manufacturer's instructions, RNAiMAX was used to transfect CD163 No. 01 and scrambled interference fragment NC respectively to BV2 cells, BV2 cell culture medium was then added with or without 10 μM Triol, and BV2 cells were stimulated with 20 μM hemoglobin and 1% hypoxia for 6 hours, after which protein samples were collected, and the expression of microglial activation markers Iba-1 and CD11b was detected by Western blot.
(§1) 1) Preparation of protein samples (see the instructions of M-PER protein lysate): After the cells had been processed for the specified time, the medium was aspirated and then washed with 4° C. pre-chilled PBS (0.01M pH7.2˜7.3) for 3 times. 150-200 ul of M-PER protein lysate mixed with protease inhibitor (PMSF 100×) was added, which was lysed on ice for 10 minutes to fully lyse the cells. […] 2) BCA protein quantification (see the instructions of BCA protein quantification kit): corresponding components were added to a 96-well detection plate by the ratio of quantification reagent A solution:B solution:ddH2O:protein=100:2:7.5:5, and albumin standards diluted in gradient concentration were added to draw a standard curve. […] After the reaction, the absorbance of each well at a wavelength of 562 nm was detected using a microplate reader. […]

CD163 = assay: Western blot of CD163 in prefrontal cortex brain tissue, acute hypobaric hypoxia model; type: in vivo, cynomolgus monkeys; settings: FIGS. 4A and 4B
Description: FIG. 4. Triol enhanced the clearance of free hemoglobin in brain tissue by up-regulating CD163 and Heme Oxygenase-1 (HO-1) protein levels. A. Protein expression of hemoglobin scavenger receptor CD163 and heme oxygenase HO-1 in the brain tissue of the prefrontal cortex of cynomolgus monkeys; B. Statistics of protein relative gray scan values. The gray value was obtained by scanning with Image Lab software, and the relative value was obtained after normalizing with α-Tubulin. NN: Normobaric Normoxia group (N=3); HH: Hypobaric Hypoxia group (N=3); HH+Triol: Hypobaric Hypoxia with Triol administration group (N=3); HH+PROG: Hypobaric Hypoxia with progesterone administration group (N=3). […]
as §1, with “times.” for “times. 150-200 ul of M-PER protein lysate mixed with protease inhibitor (PMSF 100×) was added, which was lysed on ice for 10 minutes to fully lyse the cells.”

Compound: C[C@@]12CCCC1C1C[C@@H](O)[C@@]3(O)C[C@@H](O)CC[C@]3(C)C1CC2 (stereo partly drawn) [Triol, 5α-androst-3β,5,6β-triol]
- effect on the up-regulation of CD11b in hypoxia and hemoglobin-activated microglia cells (CD11b in microglia BV2; without CD163 interference): inhibitory effect
- inhibitory effect on the up-regulation of CD11b after interfering CD163 (CD11b in microglia BV2; CD163 RNA interference, FIG. 7): cancelled
- down-regulation of CD163 expression caused by acute hypobaric hypoxia (CD163): significantly restored
